For the assay, the target named is CPSF73 (Homo sapiens, UniProt Q9UKF6). The assay can be described thus: gel-based end-point fluorescence nuclease assay with reconstituted U7 machinery. It is filed as biochemical.

Regarding `O=C(O)CCc1cccc2c1B(O)OC2` [AN3661], the IC50 – broadly, the point on the concentration scale where inhibition reaches its midpoint – turned out to be 850 nM.

The record behind these values is publication PMC8457007 (RNA, 2021).
